Measured values taken from patent US20180071261A1, “CYCLOCREATINE MICROSUSPENSION” (Lumos Pharma, Inc., priority 2015, published 2018).
Values after ≈ are worked out from the molar mass of the structure shown.

Columns and labels:
Assay type in all cases: physicochemical
[1] = Drug stability: cyclocreatine degradation after milling
Method: (§1) The cyclocreatine samples were analyzed before and after milling (Example 1) to assess the effect of milling on the drug stability.
After milling for about 45 min, the particle size of the micronized API appeared to have been reduced uniformly for the entire batch of sample.

[2] = Particle size analysis before and after milling; conditions: for Particle size: 200 mg/mL, 1.0 mm zirconia beads, 3344 rpm
From the text: To a milling vessel size of 0.6 liter of a Glen Dyno Mill about 70% volume of zirconia grinding media was charged. An agitator shaft activated the media, creating shearing and impacting forces. The rotation of the agitator imparted energy to the surrounding media and fractures the cyclocreatine solids suspended in water, resulting in overall reduction in particle size.
Water was charged into a stainless steel vessel equipped with overhead agitator and blanketed with nitrogen followed by the addition of cyclocreatine. The mixture was pumped via a peristaltic pump into the grinding chamber. The milled sample exiting the chamber was collected in another stainless steel vessel (also equipped with an overhead agitator and blanked with nitrogen) until the first vessel was empty at which time a three way valve was switched as to continue pumping the mixture in one of the vessels into the grinding chamber. The drug concentration in the suspension ranged from 10-20% w/v. […] The rotation of the disk accelerated the milling media radially. The suspension mixture flowed axially through the milling chamber where the shear forces generated during impaction of the milling media with the solid particles provided the energy input to fracture the drug into nanometer-sized particles. Up to 40% nanoparticles were observed. In another embodiment, up to about 10% nanoparticles by volume were observed. The temperature inside the grinding chamber was controlled by circulating coolant through the outer jacket. The resultant microsuspension had good flow characteristics and appeared milky (FIG. 2).
For example a 200 mg/mL solid concentration of formulation processed in a 0.6 liter sized grinding chamber filled with 1.0 mm diameter zirconia beads and a 3344 rpm agitator speed for a total of two hours produced samples with similar final particle size in three repeated experiments. In all instances, the particle size decreased markedly within 30 min processing time from the initial 400 μm to about 80 μm, but with little change observed between 30 and 120 min. Further prolonging in the milling times was not beneficial, because decreased particle sizes were not achieved. In addition to particle size analysis (FIG. 3), the SEM micrographs (FIG. 4) further confirmed that the milling process as effective in converting the original cyclocreatine particles into the low micron range.
as §1

[3] = Solubility of cyclocreatine in water
Method: The collected micronized API was then formulated with water to form an aqueous microsuspension. 20.0 grams of cyclocreatine was weighed into a graduated vessel. Approximately 80 mL of water was added and the solution mixed to allow partial dissolution. After mixing for 5 minutes, water was added to dilute to a final volume of 100 mL.

[4] = Stability test: cyclocreatine concentration in suspension formulation over 40 days; conditions: suspension in water (~200 mg/mL)
[5] = by process condition (un-milled vs wet bead mill)

NC1=NCCN1CC(=O)O [Cyclocreatine, cyclocreatine]
Cyclocreatine degradation after milling process (%) [1, 5]: 0%
Stability during the milling process ([1]; dry milling (pin mill), about 45 min): stable
Nanoparticles observed ([2]; after wet bead milling): Up to 40%
Nanoparticles by volume observed ([2]; after wet bead milling, another embodiment, by volume): up to 10%
Particle Size (μm, Volume weighted average) [2, 5]: 400 μm
Particle size ([2]; initial, before wet milling): 400 μm
Particle size ([2]; within 30 min processing time): about 80 μm
solubility [3]: 17 mg/mL (≈ 119 mM)
Cyclocreatine concentration in the suspension sample ([4]; day 0): 177.1 ± 0.5 mg/g
Cyclocreatine concentration in the suspension sample ([4]; day 7): 174.6 ± 1.0 mg/g
Cyclocreatine concentration in the suspension sample ([4]; day 11): 175.7 ± 1.0 mg/g
Cyclocreatine concentration in the suspension sample ([4]; day 26): 176.9 ± 0.5 mg/g
Cyclocreatine concentration in the suspension sample ([4]; day 40): 180.1 ± 1.5 mg/g
